Measurements: patent US8822477B2, “Use of osmolytes obtained from extremophilic bacteria for producing medicine for the external treatment of neurodermatitis” (Bitop AG, priority 2003, dated 2014)

System: neurodermatitis
Assay: topical treatment of neurodermatitis compared with placebo treatment
Assay type: in vivo
Settings: for healing of affected skin changes: in comparison to a placebo treatment; for effectiveness in the treatment of neurodermatitis: topic application

SMILES	healing of affected skin changes	effectiveness in the treatment of neurodermatitis
CC1=NCC[C@@H](C(=O)O)N1 [ectoine]	unexpectedly accelerated healing of affected skin changes	surprisingly high effectiveness
CC1=NC[C@H](O)[C@@H](C(=O)O)N1 [hydroxyectoine]	unexpectedly accelerated healing of affected skin changes	surprisingly high effectiveness
